Source: patent US20110269790A1, “NOVEL THIENOPYRIDINES AS PHARMACOLOGICALLY ACTIVE AGENTS” (priority 2009, published 2011)

Tested on: mice
Experiment: Acute oral toxicity, sighting study in mice
Type: in vivo, mouse
Details: 2000 mg/kg in mice
Protocol: In the series of thioenopyridine derivatives compounds BN-4, BN-14 and BN-16 show good antiinflammatory potential in all models tested. […] Acute Oral Toxicity Study was conducted following OECD guidelines by fixed dose method adopted by OECD (420). The study involved preliminary sighting using small number of animals in order to derive the dose effect relation for toxicity and mortality and to provide information on dose selection for the main study.
In the preliminary sighting study, the effect of various dosed administered to single animals of each sex was investigated in a sequential manner. The sighting study generally yields information on the dose-toxicity relationship including an estimate of the minimum lethal dose. In the main study, the test article is administered to groups of 5 males and 5 female animals at one of the fixed doses (5, 50, 500 and 2000 mg/Kg). The dose is derived from the sighting study. It is immediately below that which is expected to result in mortality. If evident toxicity is not seen at the chosen dose level, the substance should be retested at the next higher dose level. If at the initial dose level, animals die, or a severe toxicity reaction requires removal of animals from the study for animal welfare reasons, the substance is retested at the next lower dose level. […]

## Nc1c2c(nc3sc4c(c13)CCC4)CCCC2 [BN-14, 2,3,6,7,8,9-Hexahydro-1H-cyclopenta[4,5]thieno[2,3-b]quinolin-10-amine]
  Toxicity, sighting study: toxic
